Results as given in publication PMC11285948, “The effects of CYP2B6 inactivators on the metabolism of ciprofol” (PLOS ONE, 2024).
Where “and” joins values, the source holds several entries; their conditions need not be identical. Equal entries are not always repeated. Where two headings read alike, the source gives them in different places.

Assay: Pharmacokinetics of ciprofol in rats pretreated with psoralen, clopidogrel or CMC
Type: in vivo, rat
Details: ciprofol 2.4 mg·kg^-1 i.v.; for concentration at 20 min: T 20.00 min; for concentration at 30 min: T 30.00 min; for concentration at 45 min: T 45.00 min; for concentration at 2 min: T 2.00 min; for concentration at 8 min: T 8.00 min; for concentration at 12 min: T 12.00 min; for concentration at 16 min: T 16.00 min
Description: 5 μL of IS solution (2.5 μg·mL^-1 D6-ciprofol) was added to 100 μL of plasma and mixed. Then, 300 μL of acetonitrile was added. The mixture was vortexed for 2 min and centrifuged for 10 min, and the supernatant was transferred to an autosampler vial for HPLC-MS/MS detection.
Twenty-four SD rats were randomly and equally divided into three groups: the control group, psoralen group and clopidogrel group. The administration scheme was as follows: the control group received 0.5% carboxy methyl cellulose by gavage (1 mL·200 g^-1), the psoralen group received 27 mg·kg^-1 psoralen by gavage, and the clopidogrel group was gavaged with 7.5 mg·kg^-1 clopidogrel. […] All rats were treated once daily for seven days. Each rat was injected with 2.4 mg·kg^-1 ciprofol via the tail vein 12 h after the end of dosing on Day 7. Rats that received ciprofol injection were placed on a flat and soft insulation pad. Timekeeping began when the rats were in the supine position and lost the righting reflex and ended when the rats could turn to the prone position successfully. The duration of loss of righting reflex (LORR) in each rat was measured. During this period, approximately 300 μL of blood was collected from the inner canthus at 2, 4, 8, 12, 16, 20, 30, 45, and 60 min after ciprofol administration, and the plasma was separated. The plasma was processed and measured as described in Section 2.4.3, and DAS 2.0 software and a noncompartmental model were used to analyse the pharmacokinetic parameters.
IBM SPSS Statistics 27 software was used to analyse the main pharmacokinetic parameters, and GraphPad Prism 8.0.2 software was used for graphical visualization. One-way ANOVA was used, and multiple comparisons were performed using the least significant difference (LSD)-T test, for which P < 0.05 indicated a significant difference.

[1] = SD, rat, plasma, intravenous, 2.4 mg/kg, rats, Clopidogrel group (7.5 mg·kg^-1 gavage daily 7 d), n = 8
[2] = SD, rat, plasma, intravenous, 2.4 mg/kg, rats, Control group (0.5% CMC gavage 7 d), n = 8
[3] = SD, rat, plasma, intravenous, 2.4 mg/kg, rats, Psoralen group (27 mg·kg^-1 gavage daily 7 d), n = 8
[4] = SD, rat, plasma, iv, 2.4 mg/kg, Control (CMC-Na), rats No.1-8 and Mean
[5] = SD, rat, plasma, iv, 2.4 mg·kg^-1, Control (CMC-Na), rats No.1-8 and Mean
[6] = SD, rat, plasma, iv, 6.75 mg/kg, Clopidogrel(6.75mg/kg)group, rats No.1-8 and Mean
[7] = SD, rat, plasma, iv, 27 mg/kg, Psoralen(27mg/kg)group, rats No.1-8 and Mean

## CC(C)c1cccc([C@H](C)C2CC2)c1O [ciprofol]
Control (CMC-Na), rats No.1-8 and Mean
  Tmax: 2.00 min
Psoralen(27mg/kg)group, rats No.1-8 and Mean
  Tmax: 2.00 min
Psoralen(27mg/kg)group, rats No.1-8 and Mean, 27 mg/kg
  CLz: 140 mL/min/kg and 120 mL/min/kg and 130 mL/min/kg
SD, rat, plasma, Psoralen(27mg/kg)group, rats No.1-8 and Mean, read-out: CLz
  clearance: 130 mL/min/kg
[1]
  AUC(0-inf): 318 ± 45 ng·h/mL
  AUC(0-t): 296 ± 40.8 ng·h/mL
  Cmax: 1490 ± 292 ng/mL
SD, rat, plasma, intravenous, 2.4 mg/kg, rats, Clopidogrel group (7.5 mg·kg^-1 gavage daily 7 d), n = 8, read-out: CL (converted)
  clearance: 128 mL/min/kg
SD, rat, plasma, intravenous, 2.4 mg/kg, rats, Clopidogrel group (7.5 mg·kg^-1 gavage daily 7 d), n = 8, read-out: MRT0-t
  MRT last: 12.6 ± 1.2 min
SD, rat, plasma, intravenous, 2.4 mg/kg, rats, Clopidogrel group (7.5 mg·kg^-1 gavage daily 7 d), n = 8, read-out: MRT0-∞
  MRT inf: 18.6 ± 6.6 min
SD, rat, plasma, intravenous, 2.4 mg/kg, rats, Clopidogrel group (7.5 mg·kg^-1 gavage daily 7 d), n = 8, read-out: Vd
  Vd: 3.71 ± 2.03 L/kg
SD, rat, plasma, intravenous, 2.4 mg/kg, rats, Clopidogrel group (7.5 mg·kg^-1 gavage daily 7 d), n = 8, read-out: t1/2 (converted)
  half-life: 21 ± 13.8 min
[2]
  AUC(0-inf): 268 ± 35.5 ng·h/mL
  AUC(0-t): 260 ± 35.1 ng·h/mL
  Cmax: 1550 ± 173 ng/mL
SD, rat, plasma, intravenous, 2.4 mg/kg, rats, Control group (0.5% CMC gavage 7 d), n = 8, read-out: CL (converted)
  clearance: 152 mL/min/kg
SD, rat, plasma, intravenous, 2.4 mg/kg, rats, Control group (0.5% CMC gavage 7 d), n = 8, read-out: MRT0-t
  MRT last: 10.8 ± 0.6 min
SD, rat, plasma, intravenous, 2.4 mg/kg, rats, Control group (0.5% CMC gavage 7 d), n = 8, read-out: MRT0-∞
  MRT inf: 13.2 ± 2.4 min
SD, rat, plasma, intravenous, 2.4 mg/kg, rats, Control group (0.5% CMC gavage 7 d), n = 8, read-out: Vd
  Vd: 3.02 ± 0.72 L/kg
SD, rat, plasma, intravenous, 2.4 mg/kg, rats, Control group (0.5% CMC gavage 7 d), n = 8, read-out: t1/2 (converted)
  half-life: 13.8 ± 3 min
[3]
  AUC(0-inf): 315 ± 23.4 ng·h/mL
  AUC(0-t): 299 ± 17.6 ng·h/mL
  Cmax: 1490 ± 200 ng/mL
SD, rat, plasma, intravenous, 2.4 mg/kg, rats, Psoralen group (27 mg·kg^-1 gavage daily 7 d), n = 8, read-out: CL (converted)
  clearance: 128 mL/min/kg
SD, rat, plasma, intravenous, 2.4 mg/kg, rats, Psoralen group (27 mg·kg^-1 gavage daily 7 d), n = 8, read-out: MRT0-t
  MRT last: 13.8 ± 1.2 min
SD, rat, plasma, intravenous, 2.4 mg/kg, rats, Psoralen group (27 mg·kg^-1 gavage daily 7 d), n = 8, read-out: MRT0-∞
  MRT inf: 16.8 ± 3 min
SD, rat, plasma, intravenous, 2.4 mg/kg, rats, Psoralen group (27 mg·kg^-1 gavage daily 7 d), n = 8, read-out: Vd
  Vd: 2.8 ± 0.46 L/kg
SD, rat, plasma, intravenous, 2.4 mg/kg, rats, Psoralen group (27 mg·kg^-1 gavage daily 7 d), n = 8, read-out: t1/2 (converted)
  half-life: 15.6 ± 3 min
[4]
  concentration at 20 min: 159 ng/mL
  concentration at 30 min: 93.3 ng/mL
  concentration at 45 min: 67.3 ng/mL
  Cmax: 1550 ng/mL
SD, rat, plasma, iv, 2.4 mg/kg, Control (CMC-Na), rats No.1-8 and Mean, read-out: CLz
  clearance: 150 mL/min/kg
SD, rat, plasma, iv, 2.4 mg/kg, Control (CMC-Na), rats No.1-8 and Mean, read-out: MRT(0-t) (converted)
  MRT last: 10.8 min
SD, rat, plasma, iv, 2.4 mg/kg, Control (CMC-Na), rats No.1-8 and Mean, read-out: MRT(0-∞) (converted)
  MRT inf: 12.9 min
SD, rat, plasma, iv, 2.4 mg/kg, Control (CMC-Na), rats No.1-8 and Mean, read-out: Vz
  Vd: 3.02 L/kg
SD, rat, plasma, iv, 2.4 mg/kg, Control (CMC-Na), rats No.1-8 and Mean, read-out: t1/2z
  half-life: 13.8 min
[5]
  concentration at 2 min: 1500 ng/mL
  concentration at 8 min: 419 ng/mL
  concentration at 12 min: 312 ng/mL
  concentration at 16 min: 224 ng/mL
[6]
  concentration at 2 min: 1050 ng/mL
  concentration at 8 min: 406 ng/mL
  concentration at 12 min: 334 ng/mL
  concentration at 16 min: 266 ng/mL
  concentration at 20 min: 193 ng/mL
  concentration at 45 min: 65.7 ng/mL
  Cmax: 1490 ng/mL
SD, rat, plasma, iv, 6.75 mg/kg, Clopidogrel(6.75mg/kg)group, T 60.00 min, rats No.1-8 and Mean
  concentration at 60 min: 43.3 ng/mL
SD, rat, plasma, iv, 6.75 mg/kg, Clopidogrel(6.75mg/kg)group, rats No.1-8 and Mean, read-out: CLz
  clearance: 130 mL/min/kg
SD, rat, plasma, iv, 6.75 mg/kg, Clopidogrel(6.75mg/kg)group, rats No.1-8 and Mean, read-out: MRT(0-t) (converted)
  MRT last: 12.6 min
[7]
  concentration at 2 min: 1560 ng/mL
  concentration at 8 min: 532 ng/mL
  concentration at 12 min: 374 ng/mL
  concentration at 16 min: 348 ng/mL
  concentration at 20 min: 203 ng/mL
  concentration at 30 min: 145 ng/mL
  Cmax: 1490 ng/mL
SD, rat, plasma, iv, 27 mg/kg, Psoralen(27mg/kg)group, T 4.00 min, rats No.1-8 and Mean
  concentration at 4 min: 895 ng/mL
SD, rat, plasma, iv, 27 mg/kg, Psoralen(27mg/kg)group, rats No.1-8 and Mean, read-out: MRT(0-t) (converted)
  MRT last: 13.6 min
SD, rat, plasma, iv, 27 mg/kg, Psoralen(27mg/kg)group, rats No.1-8 and Mean, read-out: MRT(0-∞) (converted)
  MRT inf: 17 min
SD, rat, plasma, iv, 27 mg/kg, Psoralen(27mg/kg)group, rats No.1-8 and Mean, read-out: Vz
  Vd: 2.8 L/kg
SD, rat, plasma, iv, 27 mg/kg, Psoralen(27mg/kg)group, rats No.1-8 and Mean, read-out: t1/2z
  half-life: 15.4 min
SD, rat, plasma, iv, Clopidogrel(6.75mg/kg)group, rats No.1-8 and Mean, read-out: Tmax (converted)
  Tmax: 2 min
SD, rat, plasma, iv, Control (CMC-Na), rats No.1-8 and Mean, read-out: Tmax (converted)
  Tmax: 2 min
SD, rat, plasma, iv, Psoralen(27mg/kg)group, rats No.1-8 and Mean, read-out: Tmax (converted)
  Tmax: 2 min
